In PMC8344022, “Small-molecule inhibitor of AF9/ENL-DOT1L/AF4/AFF4 interactions suppresses malignant gene expression and tumor growth” (Theranostics, 2021):

How the values were obtained:
AF9-AF4 interaction = molecular target: T1, AF9-AF4 interaction (Homo sapiens, UniProt P42568); test: Alpha assay, AF9-AF4 interaction; assay type: binding; details: read-out: IC50, inhibition of AF9-AF4 interaction
T1 construct: cDNA for human AF9 AHD domain (475-568) and ENL AHD domain (489-559) was synthesized; made in house; host or cells: E. coli BL21(DE3)
Method: (§1) ENL is also a major MLL fusion partner (~10%). The AHD domains of human ENL and AF9 share a high homology with 82% identity and 89% similarity (Figure S1A). […] Our attempts to develop an Alpha assay for ENL-DOT1L failed. […] Compound 1's activity against ENL-DOT1L was therefore not determined.
(§2) Alpha assays. Alpha assays were developed using Perkin-Elmer AlphaLisa anti-MBP kit, which contains streptavidin donor beads and anti-MBP acceptor beads. The assay was performed using a MBP-protein (5 nM), a biotinylated peptide (40 nM), and increasing concentrations of a compound in 25 µL buffer (PBS with 0.5 % BSA, pH 7.5) in 384-well plates according to the manufacturer's protocol and measured with a Tecan SPARK microplate reader. Data were imported into Prism (version 5.0), and IC50 values from 3 independent experiments with standard deviation were obtained by using a standard dose-response curve fitting.

ENL-AFF4 interaction = molecular target: T2, ENL-AFF4 interaction (Homo sapiens, UniProt Q03111); test: Alpha assay, ENL-AFF4 interaction; assay type: binding; details: read-out: IC50, inhibition of ENL-AFF4 interaction
T2 construct: ENL AHD domain (489-559) was synthesized (by Genscript) and inserted into the pMAL c5X expression plasmid; made in house; host or cells: E. coli BL21(DE3)
Method: as §1, §2

DOT1L = DOT1L (Homo sapiens, UniProt Q8TEK3); test: DOT1L enzyme inhibition; assay type: biochemical; details: at 100 µM (Figure S3: 30 or 100 µM)
Method: Inhibition of DOT1L, LSD1 and p300 was performed using our previously reported methods, [37], [38].
LSD1, and p300 histone acetyltransferase at 30 or 100 µM, using our previous reported methods [Ref. 36, 37,
(1 picture or pasted object on this page, not shown here)

[1] = system: nuclear protein levels in Molm-13 cells; test: Western blot of nuclear proteins; assay type: cell-based; details: 3 days
Method: Next, we investigated how compound 1 affects these transcription cofactors in the nucleus, where they regulate gene expression. […] DOT1L inhibitor EPZ4777 [25] reduced the methylation levels of H3K79, but not other proteins (Figure 3B). […] In this regard, despite lack of activity against DOT1L, compound 1 can mimic EPZ4777 to reduce H3K79 methylation.
(§3) Western blot. 3x10^6 cells/well were treated with increasing concentrations of a compound for 3 days and nuclear proteins extracted with the EpiQuik Nuclear Extraction Kit (Epigentek) according to the manufacturer's protocol. Equal amounts of proteins were separated on SDS-PAGE and transferred to PVDF membranes. The blots were probed with primary antibodies, followed by anti-rabbit or anti-mouse IgG (Thermo Scientific) secondary antibodies. The primary antibodies used in this research were MBP Mouse mAb (#2396, Cell signaling), DOT1L Rabbit mAb (#77087, Cell signaling), MLL-N Rabbit mAb (#14689, Cell signaling), ENL Rabbit mAb (#14893, Cell signaling), Di-Methyl-Histone H3K79 Rabbit mAb (#5427, Cell signaling), Mono-Methyl-Histone H3K79 Rabbit mAb (#9398, Cell signaling), Histone H3 Rabbit mAb (#4499, Cell signaling), AF4 Rabbit pAb (#NBP1-28705, Novusbio) and AFF4 Rabbit pAb (#ab103586, Abcam).

[2] = system: nuclear protein levels in MV4;11 cells; test: Western blot of nuclear proteins; assay type: cell-based
Method: as §3

Molm-13 cells [3] = test: Annexin V apoptosis assay (flow cytometry); assay type: cell-based
Method: (§4) Compound 1 (5 μM for 5 days) induced significant differentiation, with more cell populations expressing CD14 and CD11b, two cell surface proteins for macrophages/monocytes (Figure 5B).
Flow cytometry. […] Apoptosis was determined using the FITC Annexin V Apoptosis Detection Kit I (BD Bioscience) using the manufacturer's protocol. For other FACS assays, cells were labeled with fluorochrome-conjugated monoclonal antibodies against human CD14 and CD11b (BD Biosciences) according to the manufacturer's recommendation. Cells were analyzed using a FACS Calibur (BD Biosciences/Applied Biosystems) and data were processed using the program Flowjo (version7.6.5).

Molm-13 cells [4] = test: Flow cytometry for CD14 and CD11b (differentiation); assay type: cell-based, human; details: 5 μM for 5 days
Method: as §4
Flow cytometry. For Annexin V apoptosis assay, 10^5 cells/ml were incubated with increasing concentrations of a compound for 5 days. Apoptosis was determined using the FITC Annexin V Apoptosis Detection Kit I (BD Bioscience) using the manufacturer's protocol. For other FACS assays, cells were labeled with fluorochrome-conjugated monoclonal antibodies against human CD14 and CD11b (BD Biosciences) according to the manufacturer's recommendation. Cells were analyzed using a FACS Calibur (BD Biosciences/Applied Biosystems) and data were processed using the program Flowjo (version7.6.5).

[5] = Tolerability in xenograft study (body weight, overt toxicity); assay type: in vivo
Method: In vivo antitumor activity of compound 1 was evaluated in a commonly used mouse model of MLL-r leukemia, [26]. 10^7 MV4;11 cells in 0.1 mL of saline and Matrigel (1:1) were injected subcutaneously into NOD-SCID mice, which can develop palpable tumors in ~2 weeks.
In vivo antitumor studies. All of the mouse studies were conducted in strict compliance with an IRB-approved protocol. NOD-SCID mice (4 to 6 weeks old, from Jackson lab) were obtained and maintained under specific pathogen-free conditions. 10^7 MV4;11 cells in medical grade saline and Matrigel (1:1, 0.1 mL) were inoculated subcutaneously and palpable tumors (2-3 mm in diameter) were developed in ~ 2 weeks. Mice were treated with compound 1 (15 mg/kg/day for 10 days) in saline (0.1 mL) administered intraperitoneally. Tumors were measured every 2 days and estimated by using the formula a×b^2/2.

Chain of DOT1L (Q8TEK3 1-472): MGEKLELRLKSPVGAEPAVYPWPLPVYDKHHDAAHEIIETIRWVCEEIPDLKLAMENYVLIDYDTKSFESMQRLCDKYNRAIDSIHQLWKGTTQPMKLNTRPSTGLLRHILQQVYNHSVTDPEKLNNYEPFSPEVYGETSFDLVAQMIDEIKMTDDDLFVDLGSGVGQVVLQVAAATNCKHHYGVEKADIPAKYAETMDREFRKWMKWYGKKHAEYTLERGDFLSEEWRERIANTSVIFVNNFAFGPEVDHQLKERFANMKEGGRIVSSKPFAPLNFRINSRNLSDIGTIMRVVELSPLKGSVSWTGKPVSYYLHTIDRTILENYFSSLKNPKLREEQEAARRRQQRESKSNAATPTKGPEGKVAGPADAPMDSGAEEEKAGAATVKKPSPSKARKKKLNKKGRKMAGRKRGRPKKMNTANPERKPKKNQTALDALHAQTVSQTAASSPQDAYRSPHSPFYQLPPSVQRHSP
T1 sequence (P42568 475-568): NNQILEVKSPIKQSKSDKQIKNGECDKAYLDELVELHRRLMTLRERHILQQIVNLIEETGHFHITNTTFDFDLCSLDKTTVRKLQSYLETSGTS
T2 sequence (Q03111 489-559): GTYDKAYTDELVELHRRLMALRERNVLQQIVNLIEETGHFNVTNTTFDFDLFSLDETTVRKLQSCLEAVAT

In the case of `CC(C)(C)c1ccc(-n2cc(C(=O)NC3CCNCC3)nc2-c2ccccc2)cc1` [Compound 1], the IC50 (AF9-AF4 interaction) is reported as 1500 ± 200 nM, the IC50 (ENL-AFF4 interaction) is reported as 3300 ± 300 nM and the “Inhibition of DOT1L enzyme activity” value (DOT1L) is reported as “did not significantly inhibit”. The “Nuclear levels of DOT1L, H3K79me1 and me2, ENL and AFF4” value [1] was “reduced the nuclear levels of DOT1L, H3K79me1 and me2, ENL and AFF4”, the “Nuclear levels of MLL-AF9” value [1] was “unaffected” and the “Nuclear level of AFF4” value ([2]; 10 μM) was “did not cause significantly decreased AFF4”. For the same molecule, the “Nuclear protein levels of H3K79me1 and me2 and ENL” value ([2]; 3 days) was “reduced the nuclear protein levels of H3K79me1 and me2 and ENL”, the Apoptosis (Molm-13 cells [3]; 5 µM, 5-day incubation) was “did not cause significant apoptosis” and the Apoptosis (Molm-13 cells [3]; 10 µM, 5 days) was 44.2%. For the same molecule, the Apoptosis (Molm-13 cells [3]; 15 µM, 5 days) was 73.6%, the Apoptosis (Molm-13 cells [3]; short-term 2- or 3-day incubation) was under 5% and the “Differentiation: cells expressing CD14 and CD11b” value (Molm-13 cells [4]) was “significantly more cells expressing high levels of CD14 and CD11b”. For the same molecule, the Body weight ([5]; 15 mg/kg for Day 1-10) was “did not cause significant weight losses” and the Overt toxicity ([5]; mouse model of MLL-r leukemia, 15 mg/kg) was “without overt toxicity”.
